# Several values for one entry are separate records, joined by “and”; a condition that tells them apart may be missing. Equal values may be shown once. No end group written: not given here.
# Tests used:
# [1] = system: pig tracheal muscle strips; settings: contracted to approximately 30% maximal with carbachol
# Protocol: Pig tracheal muscle strips of approximately 2 mm×2 mm in size and with mucosa were prepared by dissecting away overlying cartilage. Strips were suspended in Krebs solution under 1 g passive tension, and contracted to approximately 30% maximal contraction with carbachol (40 μM).
# [2] = system: guinea-pig taenia coli
# Protocol: 2 cm strips of teania coil with intact Auerbach's plexus, but which had been stripped of the mucosa, were suspended in Kreb's solution under 1 g passive tension, and contracted with histamine (1 μM) to induce active tension.
# [3] = system: human distal colon
# Protocol: Human distal colon strips obtained at bowel resection were suspended at 1 g passive isometric force and contracted with substance P (30 μM) to maintain a steady level of active tension.
# [4] = system: human bronchial epithelium; settings: after amiloride
# Protocol: Human airways were obtained from discarded sections of lungs of patients undergoing lobectomy operations at the Royal Melbourne Hospital, Melbourne, Australia usually for lung cancer. The dissection and set up were as described above for the mouse trachea.
# (§1) After an equilibration time of 30 min, compounds for testing and drugs to elucidate the mechanism of any changes in Isc to the test compounds were added to either side of the tracheal epithelium (ie to either bath). Compounds used for increasing Isc were PGE2, adenosine 5′-triphosphate (ATP), uridine 5′-triphosphate (UTP) and the PAR1-, PAR2- and PAR4-activating peptides, SFLLRN (SEQ ID NO:1) and SLIGRL (SEQ ID NO:2) and GYPGQY (SEQ ID NO:6), respectively. These stimulants were added cumulatively with controls for any time-dependent tachyphylaxis.
# [5] = system: monkey small bronchi
# Text: The experimental details are similar to those for the mouse isolated bronchi. Briefly, approximately 2 mm long rings of small bronchi were mounted on wire hooks. In each trace, half log concentrations are not depicted for clarity.
# [6] = system: rat bronchioles
# Text: The right and left main bronchi and their first order branches of specific pathogenfree (SPF) Balb/c mice (15–20 g; either sex), Hartley tricolour guinea-pigs (300–400 g; male) and Sprague-Dawley rats (200–350 g; either sex), all killed by either cervical dislocation or overdosed (i.p.) with sodium pentobarbitone, were cleared of surrounding connective tissue, nerves and blood vessels under a dissecting microscope and placed in cold, carbogenated (95% v/v O2,5% v/v CO2) Krebs solution (Kemp and Cocks, 1997). Human airway preparations (0.5–1 mm in external diameter) were dissected from lungs of cancer patients undergoing thoracotomy at The Royal Melbourne Hospital, Melbourne, Australia. The epithelium was removed from some bronchi either by mechanical abrasion of the luminal surface (guinea-pig) or by brief, gentle intraliminal flushing of the airways with Krebs containing 0.1% v/v Triton-X100 (mouse and rat). In each case, removal of the epithelium was verified histologically in 8 μm formalin-fixed, paraffin sections stained with haemotoxylin and eosin. Ring segments (approximately 2 mm long) of bronchi and bronchioles were mounted in Krebs (37° C.) on stainless steel wires (40 μm) in dual channel (5 ml) Mulvany-Halpern myographs (JP Trading, Aarhus, Denmark) to record changes in isometric force (Kemp and Cocks, 1997). After equilibration at a passive force between 0.2 g and 0.3 g, tissues were contracted to their maximum levels of active force (Fm.),) with acetylcholine (30 μM), thoroughly washed with Krebs and allowed to return to baseline. Various drugs or their vehicles were then added and 30 min later all tissues were contracted to approximately 40% Fmax with titrated concentrations of carbachol (10–500 nM). The L-type voltage-operated Ca^2+ channel inhibitor, nifedipine (0.3 μM) was added to all mouse and rat tissues after obtaining Fmax to control characteristic phasic contractile activity with carbachol.
# All cumulative responses (relaxations and contractions) were normalised as percentages of the initial level of active force to carbachol. Results are presented as mean±s.e mean and pEC50 (sensitivity) values were calculated by fitting concentration-response curves to a four parameter logistic function (Kemp and Cocks, 1997) using Graphpad Prism (version 2.0). Statistical comparison of mean pEC50 and maximum response (Rmax) values were compared by two-tailed unpaired Student's t-tests or one way analysis of variance (ANOVA) with Tukey-Kramer's t-tests for multiple comparisons. P<0.05 was accepted as significant. Unless specified, all averaged data are from n>5 experiments.
# [7] = system: anaesthetised rat
# Protocol: Male Sprague-Dawley rats (8 weeks) were anaesthetised (xylazine 10 mg/kg, ketamine 100 mg/kg and 50 mg/kg each 30 min thereafter, i.p.) and cannulae were placed in the trachea, carotid artery and jugular vein. Spontaneous breathing was stopped by an intravenous injection of pancuronium bromide (0.4 mg/kg and 0.2 mg/kg each 30 min thereafter) and rats were ventilated (tidal volume 8 ml/kg at 90 breaths/min, SAR-830 ventilator, CWE Inc., Ardmore, USA). Breath-to-breath measurement of airway resistance (RD and dynamic compliance (Cdyn) were calculated from flow and transpulmonary pressure recordings (PMS800, Mumed, London, UK). Flow was measured over the tracheal cannula (Fleisch pneumotachograph, Lausanne, Switzerland) and transpulmonary pressure was measured with a differential pressure transducer, one end being connected to the outlet of the tracheal cannula, the other to an air-filled cannula inserted in the oesophagus. A rectal probe was used to monitor body temperature. Serotonin (5-HT; 0.3 mg/kg i.v.) was administered as a bolus dose at 5 min intervals until reproducible changes in RL and Cdyn were obtained. Prior to each 5-HT challenge, lungs were hyperinflated once (by delivering twice the tidal volume) to prevent and reverse atelecasis. […]
# [8] = system: mouse trachea
# Text: Mice were killed by a lethal overdose of sodium pentobarbitone and the tracheae rapidly excised. The trachea was opened longitudinally through the ventral cartilage rings to make a fiat sheet. Each sheet of trachea was mounted between two perspex chambers so that the mucosal (luminal) and submucosal and bathed with warmed, oxygenated Krebs' solution, independently on each side. Electrodes in the chambers allowed recordings of transepithelial potential difference using an amplifier. The tissue was voltage clamped at 0 mV by passing a current from the amplifier via another set of electrodes in the chambers. The amount of current required to maintain voltage at 0 mV is defined as the short circuit current (Isc) and is conventionally used as a measure of all ionic fluxes across the preparation.
# as §1
# [9] = system: mice challenged with bacterial lipopolysaccharide; settings: 2 mg/kg or 20 mg/kg intranasal before LPS
# Protocol: Mice were challenged with bacterial lipopolysaccharide (LPS; 10 μg/mouse) via intranasal administration under light halothane aneasthesia.
# Three hours after receiving LPS, the mice were killed via an intraperitoneal injection of sodium pentabarbitone and the lungs were canulated and lavaged with 4×0.5 ml washes of phosphate buffered saline. The total number of cells retrieved by this procedure was determined with a haemocytometer. Differential counts of individual cell types were performed on cytospin preparations of the lavage fluid, stained with the conventional May-Grunwald/Giemsa blood stain. The total number of neutrophils in each sample was then calculated from the proportion of neutrophils in the cytospin preparations, as a proportion of the total number of cells retrieved.
Substance,relaxation of pig tracheal strip [1],relaxation in presence of apamin ([2]; apamin (100 μM)),relaxation of taenia coli ([2]; contracted with histamine (1 μM)),response of human distal colon [3],change in Isc [4],effect on monkey small bronchi [5],Rmax [6] [%],pEC50 [6],inhibition of 5-HT-induced changes in airway resistance (RL) and dynamic compliance (Cdyn) ([7]; 30 sec aerosol of 0.1 mg/ml solution),duration of inhibition of bronchoconstriction to 5-HT ([7]; aerosol of 1 mg/ml),inhibition of bronchoconstriction to 5-HT ([7]; aerosol of 1 mg/ml),increase in Isc in presence of indomethacin ([8]; cyclooxygenase inhibitor indomethacin),change in Isc ([8]; luminally applied),effect on LPS-induced neutrophil infiltration into the lungs [9]
SFLLRN [SFLLRN—NH2],"slow onset, near maximal relaxation of the tissue comparable in extent to that induced by isoprenaline",inhibited,relaxed in response to TRAP in a concentration-dependent manner,relaxed in an apparently apaminin sensitive manner,increases in Ise,smooth muscle relaxing effects,–,–,–,–,–,–,–,–
SLIGRL-NH2 [SLIGRL—NH2],–,–,–,–,–,–,67±5,5.1±0.1 and 5.1±0.01,50–70%,at least 45 min,complete inhibition,unaffected,rapid initial rise in Isc usually followed by some degree of recovery until a steady plateau was reached,dose-dependent inhibition of the increase of neutrophil infiltration into the lungs

# Reference: US7256172B1, “Method of treatment and agents useful for same” (The University of Melbourne, priority 1998, dated 2007)
